Assay results from paper PMC7569734 (Bioorganic & medicinal chemistry letters, 2019).
Entries after “also recorded” stand apart in the source; their conditions may differ. Like-named read-outs stand apart in the source and are kept apart here. Marks after values point to notes of the source that are not given here.

Assays:
Estrogen Receptor = test: Estrogen receptor assay; format: cell-based
[1] = test system: Type 2 GD patient-derived cells (L444P/L444P genotype); test: GPN-induced lysosomal calcium release assay in Type 2 GD patient-derived cells; format: cell-based, human; settings: for Emax: Homo sapiens, read-out: Lysosomal Ca+2 Assay Emax, GD patient-derived cells, percent activation of basal GPN-induced calcium response measured in the absence of compound

estrogen receptor functional activity (in words) (Estrogen Receptor; 10 μM)	Compound	activity in lysosomal calcium release assay (in words) ([1]; GD patient-derived cells)	also measured
–	CC/C(=C(\c1ccccc1)c1ccc(OCCN(C)C)cc1)c1ccccc1 [Compound 1, tamoxifen, reference compound]	partially restores lysosomal calcium in GD patient-derived cells	Estrogen Receptor % Activity @ 10 μM (inhibition) (Estrogen Receptor): 100%^††; estrogen receptor functional activity (in words) (Estrogen Receptor): antagonist activity
–	CCC(Cc1ccc(OCCN(C)C)cc1)c1ccccc1 (centres unmarked) [Compound 5]	somewhat more potent than and equally efficacious as tamoxifen	–
–	CCC(C(=O)c1ccc(OCCN(C)C)cc1)c1ccccc1 (centres unmarked) [Compound 17]	little effect on lysosomal calcium release	–
–	CCCC(C(=O)c1ccc(OCCN(C)C)cc1)c1ccccc1 (centres unmarked) [Compound 18]	little effect on lysosomal calcium release	–
–	CC(C)C(C(=O)c1ccc(OCCN(C)C)cc1)c1ccccc1 (centres unmarked) [Compound 19]	–	Emax [1]: 54 to 60%
–	CCCC(CCC)(C(=O)c1ccc(OCCN(C)C)cc1)c1ccccc1 [Compound 20]	–	Emax [1]: 54 to 60%
–	CCCCC(C(=O)c1ccc(OCCN(C)C)cc1)c1ccccc1 (centres unmarked) [Compound 21]	little effect on lysosomal calcium release; also recorded: no activity	–
–	CC(C)CC(C(=O)c1ccc(OCCN(C)C)cc1)c1ccccc1 (centres unmarked) [Compound 22]	–	potency relative to tamoxifen in calcium release assay ([1]; GD patient-derived cells, fold more potent than tamoxifen): 10 fold
partial agonist activity	CC(C)CCC(C(=O)c1ccc(OCCN(C)C)cc1)c1ccccc1 (centres unmarked) [Compound 23]	–	efficacy relative to tamoxifen in calcium release assay ([1]; GD patient-derived cells, percent more efficacious than tamoxifen): roughly 30%
partial agonist activity	CCCCCCC(C(=O)c1ccc(OCCN(C)C)cc1)c1ccccc1 (centres unmarked) [Compound 24]	little effect on lysosomal calcium release	–
antagonist rather than an agonist	CCCCC(C(=O)c1ccc(OCCN(C)C)cc1)c1ccccc1CC (centres unmarked) [Compound 26]	–	–
–	CCCCC(C(=O)c1ccc(OCCN(C)C)cc1)c1ccccc1C(C)C (centres unmarked) [Compound 28]	–	EC50 ([1]; read-out: Lysosomal Ca+2 Assay EC50, GD patient-derived cells, GPN-induced calcium release): 1.48 µM

Compound	estrogen receptor functional activity (in words) (Estrogen Receptor; 10 μM)	activity in lysosomal calcium release assay (in words) ([1]; GD patient-derived cells)	also measured
CC(C)CC(C(=O)c1ccc(OCCN(C)C)cc1)c1ccccc1C1CC1 (centres unmarked) [Compound 31]	devoid of estrogenic activity; also recorded: lack of any estrogenic activity	–	–
